From PubChem BioAssay (NCI)
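Values below derive from 48-hour exposures of cells grown in 96-well plates, with endpoints linearly interpolated between the two concentrations bracketing the appropriate inhibition level. Abbreviation: GI50, concentration required for 50% inhibition of growth. TGI denotes the concentration required for complete inhibition of growth.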

Tests used:
Test in all cases: growth of human tumour cells (NCI), 48 h
KM20L2 colon = test system: KM20L2 colon
SF-268 CNS = test system: SF-268 CNS
SF-539 CNS = test system: SF-539 CNS
SN12C renal = test system: SN12C renal
UO-31 renal = test system: UO-31 renal
OVCAR-3 ovarian = test system: OVCAR-3 ovarian
DLD-1 colon = test system: DLD-1 colon
DU-145 prostate = test system: DU-145 prostate
MCF7 breast = test system: MCF7 breast
MDA-MB-231 breast = test system: MDA-MB-231 breast

Structure (SMILES) | TGI (KM20L2 colon) [µM] | TGI (SF-268 CNS) [µM] | TGI (SF-539 CNS) [µM] | TGI (SN12C renal) [µM] | TGI (UO-31 renal) [µM] | TGI (OVCAR-3 ovarian) [µM] | TGI (DLD-1 colon) [µM] | GI50 (DU-145 prostate) [µM] | TGI (DU-145 prostate) [µM] | GI50 (MCF7 breast) [µM] | TGI (MCF7 breast) [µM] | GI50 (MDA-MB-231 breast) [µM] | TGI (MDA-MB-231 breast) [µM] | GI50 (OVCAR-3 ovarian) [µM] | GI50 (SF-268 CNS) [µM] | GI50 (SF-539 CNS) [µM] | GI50 (SN12C renal) [µM] | GI50 (UO-31 renal) [µM] | GI50 (KM20L2 colon) [µM]
COC(=O)C(=O)C(C(=O)C(=O)Nc1cc(C)ccc1C)c1nc2ccc(C(=O)c3ccccc3)cc2[nH]c1=O (configuration not stated) | > 100 | > 100 | > 100 | > 100 | > 100 |  |  |  |  |  |  |  |  |  |  |  |  |  | 
c1ccc(N/N=C2\NN=C(c3ccccc3)CS2)cc1 | 22.8 | 19.8 | 41.7 |  | 32.8 | 50.9 |  |  |  |  |  |  |  |  |  |  |  |  | 
Cc1ccc2nc(NC(=O)/C(=N\NC(=S)NN)C3C(=O)NC(=S)NC3=O)sc2c1 | > 100 | > 100 | > 100 | > 100 | > 100 |  | > 100 |  |  |  |  |  |  |  |  |  |  |  | 
C=CCN(N=O)C(=O)NCCCCC(NC(C)=O)C(=O)NCc1ccccc1 (configuration not stated) | > 100 | > 100 | > 100 | > 100 | > 100 | > 100 |  |  |  |  |  |  |  |  |  |  |  |  | 
CN(C)CCNC(=O)NC[C@H]1CC[C@@H]2[C@H](O1)c1cc(C(F)(F)F)ccc1N[C@H]2c1ccccc1 |  | 39.6 | 8.31 | > 51.7 | 34.6 | 10.3 |  | 0.253 | 0.792 | 0.0389 | 13.8 | 0.24 | 3.6 | 0.264 | 0.589 | 0.187 | 0.455 | 6.12 | 
C=C1C(=O)O[C@H]2[C@H]1CC/C(COC(=O)NCCCCCCCCNC(=O)OC/C1=C/CC[C@@]3(C)O[C@H]3[C@H]3OC(=O)C(=C)[C@@H]3CC1)=C\CC[C@@]1(C)O[C@@H]21 |  | 2.69 | 0.599 | 0.849 | 2.17 | 1.06 |  | 1.1 | 2.3 | 0.221 | 0.833 | 0.2 | 0.458 | 0.33 | 0.999 | 0.235 | 0.264 | 0.88 | 
CN1CCN(Cc2ccc(NC(=O)c3cncc(C#Cc4cnc(N)c5cnccc45)c3)cc2C(F)(F)F)CC1 |  | 6.93 | 0.628 | 5.86 | 1.31 | 8.43 |  | 0.214 | 6.21 | 0.921 | 8.75 | 0.0722 | 0.223 | 0.337 | 0.234 | 0.157 | 0.167 | 0.42 | 
CCCN1CCC(c2ccc(Nc3nc(Nc4cc(F)ccc4C(N)=O)c4cc[nH]c4n3)c(OC)c2)CC1 |  | 7.8 | 6.76 | 8.55 | 6.54 | 7.25 |  | 1.02 | 4.92 | 0.0185 | 4.23 | 4.04 | 8.82 | 3.66 | 3.42 | 2.95 | 3.62 | 2.14 | 
O=[N+]([O-])c1ccc(Sc2ccncn2)c([N+](=O)[O-])c1 |  | 10.2 | 6.75 | 15.1 | 2.84 | 2.82 |  | 2.14 | 9.17 | 2.46 | 7.74 | 7.79 | 20.8 | 1.46 | 2.75 | 2.32 | 3.89 | 1.08 | 
CC1=C([Se]CC(OC(=O)[C@@H](CO)NC(=O)OC(C)(C)C)C(=O)NCCCCCC(=O)OCc2ccccc2)C(=O)c2ccccc2C1=O (some centres not stated) |  | 3.27 | 3.09 | 3.59 | 3.03 | 3.19 |  | 1.82 | 3.26 | 1.61 | 3.36 | 1.68 | 3.19 | 1.79 | 1.85 | 1.7 | 1.95 | 1.54 | 
CCCCCC[C@H](C)NC(=O)c1ccc(Nc2nc3ccccc3c3occc23)cc1 |  | > 100 | 5.31 | 97.3 | 3.53 | 19.7 |  | 3.07 | 8.87 | 5.86 | > 100 | 12.6 | 51.8 | 3.11 | 6.39 | 2.48 | 24.5 | 0.596 | 
CCN(CC)CCNc1ccc2nc(C)n3c4ccc(O)cc4c(=O)c1c23 |  | 12 | 16.2 | 12.4 | 12.1 | 17.1 | 10.5 |  |  |  |  |  |  |  |  |  |  |  | 
C[CH2][Sn]([CH2]C)([O]C(=O)c1ccc(OC)c(OC)c1OC)[O]C(=O)c1ccc(OC)c(OC)c1OC | > 100 | > 46.4 | > 71.8 | > 100 | > 96.4 | > 100 |  | > 100 | > 100 | 24.7 | 49.2 | 59.1 | > 100 | > 100 | 28 | 44.3 | 99.8 | > 65.7 | > 100
CN(C)CCOC(=O)Nc1nc2ccc(Sc3ccccc3)cc2[nH]1 |  | 25.4 | 5.85 | 27.5 | 15.4 | 9.06 |  | 4.09 | 18.8 | 1.35 | 15.2 | 3.25 | 12.3 | 2.66 | 6.41 | 2.27 | 5.23 | 3.11 | 
Nc1c(F)cc(-c2nc3cc(F)ccc3[se]2)cc1Br |  | > 100 | 32.4 | > 100 | > 79 | > 100 |  | > 54.8 | > 100 | 0.0267 | > 100 | 0.306 | 7.79 | 0.123 | 29.4 | 11.4 | 17.7 | 1.43 | 
CCn1ccc(NS(=O)(=O)c2ccc(N)cc2)nc1=O |  | > 100 | > 100 | > 100 | > 100 | > 100 |  | > 100 | > 100 | > 100 | > 100 | > 100 | > 100 | > 100 | > 100 | > 100 | > 100 | > 100 | 
[CH3][Sn]([CH3])([CH3])[O][N+](=O)[O-] |  | > 10 | 9.58 | 4.11 | > 10 | > 10 |  | > 10 | > 10 | 2.87 | > 10 | 3.67 | 7.35 | 5.06 | 3.63 | 2.48 | 1.78 | > 10 | 
